Test results reported in patent US20160067221A1, “USE OF ERGOTHIONEINE FOR INDUCING ACTIVITY OF NRF2 IN CELL” (China Medical University, priority 2014, published 2016).

Experiments:
Type in all cases: cell-based, human
[1] = system: UVA-irradiated HaCaT cells; experiment: Intracellular ROS generation (HDCF-DA / DCF fluorescence)
Protocol: An exposure of the UVA will stimulate cells generating ROS. […] The HDCF-DA is a lipid-soluble fluorescent dye and has a cell membrane permeability. The HDCF-DA will bind to intracellular esterases to form a non-fluorescent 2′,7′-dichlorofluorescin (DCFH). The DCFH is subsequently oxidated by H2O2 to form a fluorescent 2′,7′-dichlorofluorescein (DCF), and then accumulated in a mitochondria. […] The HaCaT cells are subsequently incubated with or without the ergothioneine, and then maintained at 37° C. in a humidified atmosphere of 5% CO2 for 24 hours, wherein the concentration of the ergothioneine is 500 nM. Next, the HaCaT cells are washed with PBS three times, and then irradiated with the UVA (15 J/cm^2). After the UVA irradiation, the PBS is replaced with 1 mL of HDCF-DA (10 μM) in each well to react at 37° C. in the dark for 30 minutes. After the reaction, the fluorescent dye is removed, and the HaCaT cells are washed with PBS thrice to remove the remaining fluorescent dye. The intracellular ROS, as indicated by DCF fluorescence, is measured with the fluorescence microscope and photographed.

[2] = system: UVA-irradiated HaCaT cells; experiment: LDH release (UVA-induced cell membrane damage); details: 125, 250, 500 nM 24 hours, then 15 J/cm^2 UVA, 4 hours
Protocol: Under normal physiological condition, a lactate dehydrogenase (LDH) is presented in the cytoplasm. The cell membranes are damaged or disrupted when the cells are attacked by excessive ROS. Accordingly, the intracellular LDH releases into the culture medium. Therefore, a detection amount of LDH release is an indicator of a cell membrane damaged condition. The HaCaT cells are seeded in a 12-well plate with 1×10^5 cells/well and then maintained at 37° C. in the humidified atmosphere of 5% CO2 until the HaCaT cells are adhered in the next day. […] After incubation, the HaCaT cells are washed with PBS three times and resuspended in fresh phenol red-free DMEM supplemented with 10% FBS. Then, the HaCaT cells are exposed to the UVA (15 J/cm^2) for 4 hours. The culture medium is taken from the well, and then centrifuged at 400×g for 5 minutes by using a high speed centrifuge. After the centrifugation, 50 μL of the supernatant is taken and added into the 96-well microplate, and the 50 μL of a substrate mixture is added in each well to act at room temperature for 20 minutes in the dark. Then, 50 μl. of a stopping solution (1N HCl) is added in each well to stop the reaction, and then the absorbance at 490 nm is measured.

Nrf2 = Nrf2 nuclear translocation (Western blot of cytosolic and nuclear Nrf2, immunofluorescence staining); details: for nuclear Nrf2 protein expression / cytosolic Nrf2 protein expression: Western blot
Protocol: This example next investigates the effect of the ergothioneine on the Nrf2 nuclear translocation. The HaCat cells are pretreated with the ergothioneine for 24 hours, and then exposed to 15 J/cm^2 UVA for 1 hour. The protein expressions of a cytosolic Nrf2 and a nuclear Nrf2 are detected by the Western blot analysis, and a nuclear import of Nrf2 of the HaCaT cell is monitored by an immunofluorescence staining.
FIG. 9 illustrates the effect of the ergothioneine on the protein expressions of the cytosolic Nrf2 and the nuclear Nrf2 of the UVA-irradiated HaCaT cells. FIG. 9-(A) represents the Western blot analysis result. FIG. 9-(B) is the fluorescent photomicrograph of the immunofluorescence staining (200× magnifications). […] In FIG. 9-(B), the nucleus is labelled with 4′,6-diamidino-2-phenylindole (DAPI), and the Nrf2 is labelled with green fluorescence to measure the expression and a localization of the Nrf2.

[3] = system: Nrf2 knockdown HaCaT cells; experiment: MTT cell viability in siRNA-transfected HaCaT cells; details: 500 nM 24 hours, UVA 15 J/cm^2 4 hours
Protocol: The siRNA transfection includes steps as follows. The HaCaT cells are seeded in a 6-well plate with 4×10^5 cells/well and then maintained at 37° C. in the humidified atmosphere of 5% CO2 untill the time of the transfection. The day after reaching 40-60% confluence, the culture medium is replaced with 1 mL of FBS-free and antibiotic-free culture medium in each well, and the HaCaT cells are transfected with a siNrf2 or a control siRNA by using Lipofectamine 2000 (Invitrogen, U.S.A.) for 4-6 hours. After the incubation for 4-6 hours, the HaCaT cells are washed with the culture medium supplemented with 10% FBS 2-3 times, and then cultured in the culture medium supplemented with 10% FBS for 12-16 hours.
The HaCaT cells are incubated with 500 nM ergothioneine for 24 hours after the siRNA transfection.

[4] = ergothioneine alone, vs control

C[N+](C)(C)[C@@H](Cc1c[nH]c(=S)[nH]1)C(=O)[O-] [ergothioneine, 2-mercapto histidine trimethylbetain] was tested, and the “DCF fluorescence (UVA-induced ROS generation)” value ([1]; 500 nM 24 hours prior to 15 J/cm^2 UVA) was “ignificantly decreased”, the ROS generation ([1]; 500 nM alone, no UVA) was “non-effect” and the LDH release [2] was “inhibits the LDH release in a dose-dependent manner”. The “nuclear Nrf2 protein expression” value (Nrf2; ergothioneine 24 hours prior to 15 J/cm^2 UVA, 1 hour) was “significantly increased”, the “fluorescence intensity of the Nrf2” value (Nrf2; ergothioneine alone, immunofluorescence staining) was “slightly increased” and the “cytosolic Nrf2 protein expression” value (Nrf2; [4]) was “significantly decreased”. For the same molecule, the “nuclear Nrf2 protein expression” value (Nrf2; [4]) was “slightly increased”, the “fluorescence intensity of the nuclear Nrf2” value (Nrf2; ergothioneine prior to UVA irradiation, immunofluorescence staining) was “pronounced fluorescence intensity of the nuclear Nrf2” and the “cytosolic Nrf2 protein expression” value (Nrf2; ergothioneine prior to UVA irradiation, vs control) was “significantly decreased”. The UVA-induced cell death ([3]; Nrf2 siRNA) was “unable to ameliorate the UVA-induced cell death” and the UVA-induced cell death ([3]; control siRNA) was “able to reduce a UVA-induced cell death”.
